Laboratory results reported in US12258328B2, “6-membered heteroaryl-containing aminopyridine compounds as EGFR inhibitors” (YUHAN CORPORATION, priority 2021, dated 2025).
Read-outs that look alike come from different tables or passages of the source.

Assays:
[1] = molecular target: EGFR del19/T790M/C797S (Homo sapiens, UniProt P00533, C797S/DEL746-750/T790M); assay: Biochemical EGFR kinase assay (Lance Ultra TR-FRET), triple mutant del19/T790M/C797S
Method in brief: (§1)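 Enzyme reactions lasted 1 hour at room temperature with test compounds between 0.003 and 10 μM, followed by 10 mM EDTA quench.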

[2] = molecular target: EGFR L858R/T790M/C797S (Homo sapiens, UniProt P00533, C797S/L858R/T790M); assay: Biochemical EGFR kinase assay (Lance Ultra TR-FRET), triple mutant L858R/T790M/C797S
Chain of EGFR L858R/T790M/C797S (P00533 25-1210 T790M/C797S/L858R): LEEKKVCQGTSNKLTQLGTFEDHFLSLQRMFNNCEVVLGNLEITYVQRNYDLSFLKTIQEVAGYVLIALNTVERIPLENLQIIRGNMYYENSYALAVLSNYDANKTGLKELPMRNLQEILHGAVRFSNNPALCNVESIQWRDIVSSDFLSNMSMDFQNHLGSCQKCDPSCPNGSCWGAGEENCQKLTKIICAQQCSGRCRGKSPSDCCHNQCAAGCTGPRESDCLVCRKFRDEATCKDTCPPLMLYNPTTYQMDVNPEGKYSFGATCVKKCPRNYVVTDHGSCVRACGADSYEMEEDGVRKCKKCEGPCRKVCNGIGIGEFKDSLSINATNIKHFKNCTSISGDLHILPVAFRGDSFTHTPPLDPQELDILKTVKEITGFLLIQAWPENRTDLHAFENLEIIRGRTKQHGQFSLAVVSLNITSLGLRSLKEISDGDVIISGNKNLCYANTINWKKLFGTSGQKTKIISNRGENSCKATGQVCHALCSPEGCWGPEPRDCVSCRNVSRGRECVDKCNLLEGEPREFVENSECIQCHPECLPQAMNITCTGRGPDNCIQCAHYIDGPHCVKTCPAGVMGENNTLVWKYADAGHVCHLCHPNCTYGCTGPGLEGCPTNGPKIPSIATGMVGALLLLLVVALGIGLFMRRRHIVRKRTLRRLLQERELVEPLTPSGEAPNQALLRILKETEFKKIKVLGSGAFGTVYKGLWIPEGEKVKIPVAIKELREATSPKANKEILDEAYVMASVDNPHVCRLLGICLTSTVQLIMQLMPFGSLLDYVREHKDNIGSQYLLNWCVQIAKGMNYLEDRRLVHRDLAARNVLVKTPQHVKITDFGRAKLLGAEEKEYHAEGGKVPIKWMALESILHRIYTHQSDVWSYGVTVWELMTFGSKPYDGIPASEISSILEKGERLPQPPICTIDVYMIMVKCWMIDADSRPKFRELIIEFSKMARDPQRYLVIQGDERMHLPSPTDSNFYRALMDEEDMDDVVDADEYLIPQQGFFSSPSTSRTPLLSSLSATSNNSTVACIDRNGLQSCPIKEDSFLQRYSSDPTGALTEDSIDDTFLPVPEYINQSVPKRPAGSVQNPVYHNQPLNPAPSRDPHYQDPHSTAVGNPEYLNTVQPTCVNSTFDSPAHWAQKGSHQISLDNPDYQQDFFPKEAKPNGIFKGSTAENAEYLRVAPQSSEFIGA
Method in brief: as §1

[3] = molecular target: EGFR del19/C797S (Homo sapiens, UniProt P00533, C797S/DEL746-750); assay: Biochemical EGFR kinase assay (Lance Ultra TR-FRET), double mutant del19/C797S
Chain of EGFR del19/C797S (P00533 with tags, fused parts or gaps DEL746-750/C797S): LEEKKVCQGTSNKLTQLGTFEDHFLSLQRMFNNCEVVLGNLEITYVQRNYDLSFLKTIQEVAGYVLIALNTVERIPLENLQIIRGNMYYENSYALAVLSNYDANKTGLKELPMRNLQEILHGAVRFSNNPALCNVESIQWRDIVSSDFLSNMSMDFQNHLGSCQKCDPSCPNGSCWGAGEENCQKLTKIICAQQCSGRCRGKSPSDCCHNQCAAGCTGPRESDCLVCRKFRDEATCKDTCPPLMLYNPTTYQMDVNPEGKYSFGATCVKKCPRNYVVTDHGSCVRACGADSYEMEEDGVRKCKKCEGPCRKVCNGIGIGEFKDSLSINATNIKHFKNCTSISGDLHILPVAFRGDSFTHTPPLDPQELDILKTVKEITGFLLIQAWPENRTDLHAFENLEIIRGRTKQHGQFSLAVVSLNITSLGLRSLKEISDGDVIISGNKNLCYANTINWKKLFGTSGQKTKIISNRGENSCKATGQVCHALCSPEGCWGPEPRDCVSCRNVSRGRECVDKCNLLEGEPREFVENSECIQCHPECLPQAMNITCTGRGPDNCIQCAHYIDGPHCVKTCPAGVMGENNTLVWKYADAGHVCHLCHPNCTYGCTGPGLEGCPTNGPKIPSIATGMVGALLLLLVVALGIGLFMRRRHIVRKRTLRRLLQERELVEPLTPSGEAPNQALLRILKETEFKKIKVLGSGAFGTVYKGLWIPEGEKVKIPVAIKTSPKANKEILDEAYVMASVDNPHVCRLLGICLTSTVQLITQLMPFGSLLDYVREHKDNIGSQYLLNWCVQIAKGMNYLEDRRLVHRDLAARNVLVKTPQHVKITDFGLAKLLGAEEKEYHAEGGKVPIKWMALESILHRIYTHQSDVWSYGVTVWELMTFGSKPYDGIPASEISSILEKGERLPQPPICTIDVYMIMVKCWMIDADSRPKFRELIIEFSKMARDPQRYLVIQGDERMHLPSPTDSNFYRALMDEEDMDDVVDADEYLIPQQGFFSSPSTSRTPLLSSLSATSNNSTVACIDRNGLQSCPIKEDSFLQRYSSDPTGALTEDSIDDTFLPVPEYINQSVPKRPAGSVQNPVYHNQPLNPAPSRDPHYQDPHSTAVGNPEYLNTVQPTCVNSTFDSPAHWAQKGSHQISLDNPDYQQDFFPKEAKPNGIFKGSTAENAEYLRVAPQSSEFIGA
Method in brief: as §1

[4] = molecular target: EGFR L858R/C797S (Homo sapiens, UniProt P00533, C797S/L858R); assay: Biochemical EGFR kinase assay (Lance Ultra TR-FRET), double mutant L858R/C797S
Chain of EGFR L858R/C797S (P00533 25-1210 C797S/L858R): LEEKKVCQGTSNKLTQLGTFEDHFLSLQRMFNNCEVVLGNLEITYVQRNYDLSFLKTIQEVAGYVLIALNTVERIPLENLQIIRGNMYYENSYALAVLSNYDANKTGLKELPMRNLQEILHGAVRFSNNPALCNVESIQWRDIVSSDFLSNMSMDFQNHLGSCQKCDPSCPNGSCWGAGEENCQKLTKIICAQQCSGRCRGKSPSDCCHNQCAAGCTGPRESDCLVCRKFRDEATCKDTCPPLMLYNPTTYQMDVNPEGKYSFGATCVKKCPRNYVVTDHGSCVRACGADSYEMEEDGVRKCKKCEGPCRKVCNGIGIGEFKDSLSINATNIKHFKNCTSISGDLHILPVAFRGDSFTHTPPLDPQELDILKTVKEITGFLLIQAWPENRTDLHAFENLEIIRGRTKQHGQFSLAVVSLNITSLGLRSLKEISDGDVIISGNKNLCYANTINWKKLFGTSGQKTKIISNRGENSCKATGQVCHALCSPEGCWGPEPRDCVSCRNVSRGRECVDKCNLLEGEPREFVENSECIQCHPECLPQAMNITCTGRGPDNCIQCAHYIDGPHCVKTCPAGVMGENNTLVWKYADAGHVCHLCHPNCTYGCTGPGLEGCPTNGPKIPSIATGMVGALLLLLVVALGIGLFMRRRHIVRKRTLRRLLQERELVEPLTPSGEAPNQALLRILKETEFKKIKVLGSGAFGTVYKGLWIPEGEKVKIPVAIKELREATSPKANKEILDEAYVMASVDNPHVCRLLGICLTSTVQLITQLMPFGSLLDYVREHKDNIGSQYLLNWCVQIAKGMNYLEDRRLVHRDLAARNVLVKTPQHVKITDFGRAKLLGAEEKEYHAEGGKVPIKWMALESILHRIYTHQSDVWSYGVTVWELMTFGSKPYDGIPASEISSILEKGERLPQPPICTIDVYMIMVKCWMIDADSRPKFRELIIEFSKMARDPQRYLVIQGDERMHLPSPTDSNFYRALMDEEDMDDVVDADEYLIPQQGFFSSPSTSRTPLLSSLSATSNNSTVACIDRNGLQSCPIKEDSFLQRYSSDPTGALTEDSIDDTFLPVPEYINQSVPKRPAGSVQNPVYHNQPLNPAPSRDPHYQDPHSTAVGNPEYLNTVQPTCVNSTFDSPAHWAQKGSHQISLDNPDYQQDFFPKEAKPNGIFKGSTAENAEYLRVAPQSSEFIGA
Method in brief: as §1

[5] = molecular target: EGFR wildtype (Homo sapiens, UniProt P00533); assay: Biochemical EGFR kinase assay (Lance Ultra TR-FRET), wildtype
Method in brief: as §1

[6] = ATP at Km, read-out: IC50 del19/T790M/C797S, Km ATP
[7] = IC50 del19/T790M/C797S, 100 μM ATP
[8] = ATP at Km, read-out: IC50 L858R/T790M/C797S, Km ATP
[9] = IC50 L858R/T790M/C797S, 100 μM ATP
[10] = ATP at Km, read-out: IC50 del19/C797S, Km ATP
[11] = ATP at Km, read-out: IC50 L858R/C797S, Km ATP
[12] = ATP at Km, read-out: IC50 WT, Km ATP
[13] = IC50 del19/T790M/C797S (nM) 100 μM ATP, 100 μM ATP
[14] = Km ATP, read-out: IC50 del19/T790M/C797S (nM) Km ATP
[15] = IC50 L858R/T790M/C797S (nM) 100 μM ATP, 100 μM ATP
[16] = IC50 del19/C797S (nM) 100 μM ATP, 100 μM ATP
[17] = Km ATP, read-out: IC50 del19/C797S (nM) Km ATP
[18] = IC50 L858R/C797S (nM) 100 μM ATP, 100 μM ATP
[19] = Km ATP, read-out: IC50 L858R/C797S (nM) Km ATP
[20] = IC50 WT (nM) 100 μM ATP, 100 μM ATP
[21] = Km ATP, read-out: IC50 WT (nM) Km ATP
[22] = Km ATP, read-out: IC50 L858R/T790M/C797S (nM) Km ATP

Chain of EGFR del19/T790M/C797S (P00533 with tags, fused parts or gaps DEL746-750/T790M/C797S): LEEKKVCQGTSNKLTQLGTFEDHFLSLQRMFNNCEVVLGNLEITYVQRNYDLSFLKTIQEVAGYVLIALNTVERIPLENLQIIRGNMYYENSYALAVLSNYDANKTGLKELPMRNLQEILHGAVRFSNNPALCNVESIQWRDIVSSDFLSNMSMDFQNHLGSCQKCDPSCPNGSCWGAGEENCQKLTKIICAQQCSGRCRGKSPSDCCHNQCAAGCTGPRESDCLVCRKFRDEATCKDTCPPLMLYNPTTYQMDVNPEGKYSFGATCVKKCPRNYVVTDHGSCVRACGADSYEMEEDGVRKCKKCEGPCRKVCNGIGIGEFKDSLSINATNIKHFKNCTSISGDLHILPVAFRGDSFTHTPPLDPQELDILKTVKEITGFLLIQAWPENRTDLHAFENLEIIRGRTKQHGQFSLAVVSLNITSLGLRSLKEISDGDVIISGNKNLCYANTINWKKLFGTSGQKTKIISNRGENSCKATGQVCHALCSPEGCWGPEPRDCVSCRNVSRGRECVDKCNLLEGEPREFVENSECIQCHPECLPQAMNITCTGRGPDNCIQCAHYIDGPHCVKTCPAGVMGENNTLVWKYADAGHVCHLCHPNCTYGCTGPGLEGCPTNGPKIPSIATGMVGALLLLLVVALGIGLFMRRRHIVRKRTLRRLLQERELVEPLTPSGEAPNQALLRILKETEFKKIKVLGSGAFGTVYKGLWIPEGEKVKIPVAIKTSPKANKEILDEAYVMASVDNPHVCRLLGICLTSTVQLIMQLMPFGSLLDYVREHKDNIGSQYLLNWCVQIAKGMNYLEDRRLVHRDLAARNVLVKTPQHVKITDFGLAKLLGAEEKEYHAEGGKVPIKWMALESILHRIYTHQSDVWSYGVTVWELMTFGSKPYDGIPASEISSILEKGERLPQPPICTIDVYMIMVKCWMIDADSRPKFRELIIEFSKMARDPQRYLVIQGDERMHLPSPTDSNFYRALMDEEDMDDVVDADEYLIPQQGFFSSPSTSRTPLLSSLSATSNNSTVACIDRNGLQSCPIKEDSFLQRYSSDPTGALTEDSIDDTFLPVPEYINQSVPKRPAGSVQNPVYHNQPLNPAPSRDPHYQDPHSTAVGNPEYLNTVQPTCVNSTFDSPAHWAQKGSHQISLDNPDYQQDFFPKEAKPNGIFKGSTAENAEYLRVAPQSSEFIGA

SMILES | IC50 [1, 6] | IC50 [1, 7] | IC50 [2, 8] | IC50 [2, 9] | IC50 [3, 10] | IC50 ([3]; IC50 del19/C797S, 100 μM ATP) | IC50 [4, 11] | IC50 ([4]; IC50 L858R/C797S, 100 μM ATP) | IC50 [5, 12] | IC50 ([5]; IC50 WT, 100 μM ATP) | IC50 [1, 13] | IC50 [1, 14] | IC50 [2, 15] | IC50 [3, 16] | IC50 [3, 17] | IC50 [4, 18] | IC50 [4, 19] | IC50 [5, 20] | IC50 [5, 21] | IC50 [2, 22]
O=S(=O)(C1CC1)n1cc(-c2nccc(Nc3cc(N[C@H]4CC[C@@H](CO)CC4)c(-c4cc(NC5CC(F)(F)C5)ccn4)cn3)n2)cn1 [Example 214, ((1s,4s)-4-((6′-((2-(1-(Cyclopropylsulfonyl)-1H-pyrazol-4-yl)pyrimidin-4-yl)amino)-4-((3,3-difluorocyclobutyl)amino)-[2,3′-bipyridin]-4′-yl)amino)cyclohexyl)methanol] | 3 nM | 5.6 nM | 3.5 nM | 4.5 nM | 1.8 nM | 8 nM | 2.2 nM | 6.9 nM | 4.5 nM | 711 nM | – | – | – | – | – | – | – | – | – | –
CC(C)(O)[C@H]1CC[C@@H](Nc2cc(Nc3ccnc(-c4cnn(S(=O)(=O)C5CC5)c4)n3)ncc2-c2ccc(S(=O)(=O)N3CCOCC3)cn2)CC1 [Example 184, 2-((1s,4s)-4-((6′-((2-(1-(Cyclopropylsulfonyl)-1H-pyrazol-4-yl)pyrimidin-4-yl)amino)-5-(morpholinosulfonyl)-[2,3′-bipyridin]-4′-yl)amino)cyclohexyl)propan-2-ol] | 9.1 nM | 2.8 nM | – | 0.8 nM | 2.7 nM | 12.2 nM | 2.2 nM | 12.9 nM | 15.2 nM | > 10000 nM | – | – | – | – | – | – | – | – | – | –
CC(C)(F)c1ccc(-c2cnc(Nc3ccnc(-c4cnn(S(=O)(=O)C5CC5)c4)n3)cc2N[C@H]2CC[C@@H](C(C)(C)O)CC2)nc1 [Example 236, 2-((1s,4s)-4-((6′-((2-(1-(Cyclopropylsulfonyl)-1H-pyrazol-4-yl)pyrimidin-4-yl)amino)-5-(2-fluoropropan-2-yl)-[2,3′-bipyridin]-4′-yl)amino)cyclohexyl)propan-2-ol] | 2.5 nM | 9.1 nM | 1.9 nM | 6.4 nM | 9.1 nM | 24.4 nM | 3 nM | 177 nM | 41.8 nM | > 10000 nM | – | – | – | – | – | – | – | – | – | –
CC(C)(O)c1cnc(-c2cnc(Nc3ccnc(-c4cnn(S(=O)(=O)C5CC5)c4)n3)cc2N[C@H]2CC[C@@H](C(C)(C)O)CC2)cn1 [Example 120, 2-(5-(6-((2-(1-(Cyclopropylsulfonyl)-1H-pyrazol-4-yl)pyrimidin-4-yl)amino)-4-(((1s,4s)-4-(2-hydroxypropan-2-yl)cyclohexyl)amino)pyridin-3-yl)pyrazin-2-yl)propan-2-ol] | – | – | – | – | – | – | – | – | – | – | 0.2 nM | 0.2 nM | 0.4 nM | 0.7 nM | 0.5 nM | – | 0.1 nM | 968 nM | 4.3 nM | 0.1 nM

Further lines, results first:

IC50 [1, 6] | IC50 [1, 7] | IC50 [2, 8] | IC50 [2, 9] | IC50 [3, 10] | IC50 ([3]; IC50 del19/C797S, 100 μM ATP) | IC50 [4, 11] | IC50 ([4]; IC50 L858R/C797S, 100 μM ATP) | IC50 [5, 12] | IC50 ([5]; IC50 WT, 100 μM ATP) | IC50 [1, 13] | IC50 [1, 14] | IC50 [2, 15] | IC50 [3, 16] | IC50 [3, 17] | IC50 [4, 18] | IC50 [4, 19] | IC50 [5, 20] | IC50 [5, 21] | IC50 [2, 22] | SMILES
3 nM | 7.2 nM | 0.4 nM | 1.1 nM | 6.9 nM | 21.1 nM | 12.4 nM | 45.2 nM | 42 nM | > 10000 nM | – | – | – | – | – | – | – | – | – | – | O=S(=O)(C1CC1)n1cc(-c2nccc(Nc3cc(N[C@H]4CC[C@@H](CO)CC4)c(-c4cccc(CC(F)(F)F)n4)cn3)n2)cn1 [Example 246, ((1s,4s)-4-((6′-((2-(1-(Cyclopropylsulfonyl)-1H-pyrazol-4-yl)pyrimidin-4-yl)amino)-6-(2,2,2-trifluoroethyl)-[2,3′-bipyridin]-4′-yl)amino)cyclohexyl)methanol]
– | – | – | – | – | – | – | – | – | – | 5.5 nM | 6.8 nM | 5.4 nM | 15.8 nM | 8.8 nM | 85.5 nM | 16.6 nM | > 10000 nM | 23.6 nM | – | CC(C)(O)[C@H]1CC[C@@H](Nc2cc(Nc3ccnc(-c4cnn(S(=O)(=O)C5CC5)c4)n3)ncc2-c2cc(C(F)F)ccn2)CC1 [Example 78, 2-((1s,4s)-4-((6′-((2-(1-(Cyclopropylsulfonyl)-1H-pyrazol-4-yl)pyrimidin-4-yl)amino)-4-(difluoromethyl)-[2,3′-bipyridin]-4′-yl)amino)cyclohexyl)propan-2-ol]
– | – | – | – | – | – | – | – | – | – | 0.1 nM | – | 0.2 nM | 0.4 nM | 0.2 nM | 2.1 nM | 0.4 nM | 586 nM | 1.4 nM | 0.1 nM | CN1CCN(Cc2ccc(-c3cnc(Nc4ccnc(-c5cnn(S(=O)(=O)C6CC6)c5)n4)cc3N[C@H]3CC[C@](O)(CO)CC3)nc2)CC1 [Example 11, (1s,4s)-4-((6′-((2-(1-(Cyclopropylsulfonyl)-1H-pyrazol-4-yl)pyrimidin-4-yl)amino)-5-((4-methylpiperazin-1-yl)methyl)-[2,3′-bipyridin]-4′-yl)amino)-1-(hydroxymethyl)cyclohexan-1-ol]
– | – | – | – | – | – | – | – | – | – | 2.1 nM | 1 nM | 0.7 nM | – | 2.5 nM | 74.8 nM | 8.7 nM | > 10000 nM | 26 nM | 0.4 nM | CN(C)c1cnc(-c2cnc(Nc3ccnc(-c4cnn(S(=O)(=O)C5CC5)c4)n3)cc2N[C@H]2CC[C@@](C)(O)CC2)nc1 [Example 39, (1s,4s)-4-((2-((2-(1-(Cyclopropylsulfonyl)-1H-pyrazol-4-yl)pyrimidin-4-yl)amino)-5-(5-(dimethylamino)pyrimidin-2-yl)pyridin-4-yl)amino)-1-methylcyclohexan-1-ol]
0.4 nM | 0.4 nM | 0.1 nM | 0.3 nM | 2 nM | 5 nM | 1.8 nM | 9.7 nM | 4.6 nM | 7620 nM | – | – | – | – | – | – | – | – | – | – | CN(C)C[C@H]1CC[C@@H](Nc2cc(Nc3ccnc(-c4cnn(S(=O)(=O)C5CC5)c4)n3)ncc2-c2cccc(CC(F)(F)F)n2)CC1 [Example 248, N^6′-(2-(1-(Cyclopropylsulfonyl)-1H-pyrazol-4-yl)pyrimidin-4-yl)-N^4′-((1s,4s)-4-((dimethylamino)methyl)cyclohexyl)-6-(2,2,2-trifluoroethyl)-[2,3′-bipyridine]-4′,6′-diamine]
2.5 nM | 3.4 nM | 0.6 nM | 2.2 nM | 5.5 nM | 16.9 nM | 3.9 nM | 43.7 nM | 36.7 nM | > 10000 nM | – | – | – | – | – | – | – | – | – | – | C[C@]1(O)CC[C@@H](Nc2cc(Nc3ccnc(-c4cnn(S(=O)(=O)C5CC5)c4)n3)ncc2-c2ccc(OC(F)(F)F)cn2)CC1 [Example 194, (1s,4s)-4-((6′-((2-(1-(Cyclopropylsulfonyl)-1H-pyrazol-4-yl)pyrimidin-4-yl)amino)-5-(trifluoromethoxy)-[2,3′-bipyridin]-4′-yl)amino)-1-methylcyclohexan-1-ol]
0.3 nM | 0.7 nM | 0.2 nM | 0.2 nM | 0.7 nM | 0.6 nM | 0.4 nM | 3.5 nM | 2 nM | 1440 nM | – | – | – | – | – | – | – | – | – | – | C[C@]1(O)CC[C@@H](Nc2cc(Nc3ccnc(-c4cnn(S(=O)(=O)C5CC5)c4)n3)ncc2-c2ccc(OCCO)cn2)CC1 [Example 205, (1s,4s)-4-((6′-((2-(1-(Cyclopropylsulfonyl)-1H-pyrazol-4-yl)pyrimidin-4-yl)amino)-5-(2-hydroxyethoxy)-[2,3′-bipyridin]-4′-yl)amino)-1-methylcyclohexan-1-ol]
